Tested on: thermal hyperalgesia induced by intraplantar Complete Freund's Adjuvant
Test: CFA-induced inflammatory thermal hyperalgesia (Hargreaves test)
Assay type: in vivo
Conditions: rat, 60 mg/kg, dosed 48 h after footpad CFA
Description: (§1) FIG. 2 illustrates the antihyperalgesic effects of the compound of example 22 in a rat model of inflammatory thermal hyperalgesia induced by an intraplantar injection of Complete Freund's Adjuvant (CFA). Thermal hyperalgesia is manifest as a reduction in the time for foot-withdrawal during irradiation with a painful thermal stimulus. The compound of example 22 was administered at a dose of 60 mg/kg, 48 h after footpad injection of CFA and produced a substantial reversal (77% and 68%) of thermal hyperalgesia when assessed at 1 h and 2 h post-dose, respectively.
as §1, with “5” for “2”, “38” for “22”, “CFA.” for “Complete Freund's Adjuvant (CFA).”, “(50%)” for “(77% and 68%)”, “post-dose.” for “and 2 h post-dose, respectively.”
as §1, with “6” for “2”, “52” for “22”, “CFA.” for “Complete Freund's Adjuvant (CFA).”, “(39%)” for “(77% and 68%)”, “post-dose.” for “and 2 h post-dose, respectively.”
Male Sprague Dawley rats of young adult age group and body weight range of 180-200 g were included in the study. Animals were housed under a 12 h light/dark cycle with food and water ad libitum. The animals underwent acclimatization with the observation chambers of the Hargreaves' apparatus for two days, twice daily for 45-60 min each time prior to initiation of study. Animals were also habituated to the apparatus for 15-30 min before each testing. Thermal hyperalgesia was assessed using the rat plantar test (Ugo Basile, Italy) following a modified method of Hargreaves (1988, “A new and sensitive method for measuring thermal nociception in cutaneous hyperalgesia”, Pain 32: 77-88). […]
Following basal readout of PWL values to the thermal stimulus (PWL measurements described previously), 50 μL of complete Freund's Adjuvant (CFA—1 mg/mL suspension—Sigma, USA, Cat # F5881) was injected subcutaneously into the plantar surface of the right hind (ipsilateral) paw of animals under light isoflurane anesthesia. […]
Next day (day 1) after 20-22 h of CFA injection, PWL of animals were recorded. Mean of three readings are taken as PWL recording of ipsilateral paw of each animal for pre and post CFA basal readout. […]

## CCc1cnnn1-c1cc(C(=O)NCc2ccc(C)nc2)cn2c(-c3ccc(C)s3)cnc12 [Example 22]
Assessed 1 h post-dose
  reversal of thermal hyperalgesia: 77%
Assessed 2 h post-dose
  reversal of thermal hyperalgesia: 68%

## C[C@H](NC(=O)c1cc(-n2nncc2C(F)F)c2ncc(-c3ccc(Cl)s3)n2c1)c1nnc[nH]1 [Example 38]
Assessed 1 h post-dose
  reversal of thermal hyperalgesia: 50%

## CC[C@H](NC(=O)c1cc(-n2nncc2C(F)F)c2ncc(-c3ccc(C)s3)n2c1)c1nnc[nH]1 [Example 52]
Assessed 1 h post-dose
  reversal of thermal hyperalgesia: 39%

From patent US10316039B2, “P2X3 and/or P2X2/3 compounds and methods” (Asana Biosciences, LLC, priority 2013, dated 2019)
